US20250154110A1, “CLAUDIN INHIBITORS AND METHODS OF USE THEREOF” (The University of Chicago, priority 2021, published 2025)

Columns and labels:
[1] = target: T1, claudin-15 (Homo sapiens, UniProt P56746); assay: TER across MDCK I monolayers induced to express claudin-15; assay type: cell-based; conditions: FIG. 20; concentrations lower than 100 μM; resistance normalized to vehicle
T1 construct: expressed in transfected cells; host or cells: Madin-Darby Canine Kidney (MDCK) I cells, doxycycline-induced expression
T1 sequence (P56746 1-228): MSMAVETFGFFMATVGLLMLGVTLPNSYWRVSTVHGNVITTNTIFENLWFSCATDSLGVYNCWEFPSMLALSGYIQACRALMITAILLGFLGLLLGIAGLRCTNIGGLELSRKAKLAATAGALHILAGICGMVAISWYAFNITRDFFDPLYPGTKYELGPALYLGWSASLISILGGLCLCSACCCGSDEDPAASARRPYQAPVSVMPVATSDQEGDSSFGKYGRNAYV
Description: Electrical measures are used to assess the flow of ions through the claudin channels. The most commonly used measurement in the tight junction field is transepithelial electrical resistance (TER). These assays can be performed using epithelial cells grown on permeable supports (in vitro) or using intact tissue from the GI tract mounted across apertures (ex vivo).
Two different Madin-Darby Canine Kidney (MDCK) I cell lines were used, which respectively express either claudin-2 or -15 when grown in the presence of doxycycline. These cells are useful in assessing the specificity of molecule effects on claudin-2 versus claudin-15. Caco-2 BBe epithelial cells, which normally express claudin-2 and some claudin-15, were also used to better understand the utility of these molecules in blocking claudins in the gastrointestinal (GI) tract. Caco-2 BBe and MDCK cells were grown on 0.33 cm^2 polycarbonate semi-permeable membranes with 0.4 μm pores (Corning Life Sciences, Corning, NY) and used 4 days (MDCK) or 3 weeks (Caco-2 BBe) after plating. […]
Molecules were solubilized in vehicle (dimethylsulfoxide (DMSO)) and applied to both sides of the epithelial monolayer after first measuring TER at t=0 (FIGS. 17 and 18). […] Readings were performed for at least 3 hours after application to rule out epithelial cell injury, which would reduce TER. […]

[2] = test system: mouse mucosa; assay: TER of mouse duodenum mucosa mounted in Ussing chambers; conditions: FIG. 22, 100 μM added bilaterally, versus vehicle, P<0.01
Description: The same techniques to measure TER and ion selectivity also apply to intact mucosa isolated from mice. The only significant difference is the tissue was first stripped of its muscularis propria and mounted in chambers, known as Ussing chambers. The same techniques were used to measure ion selectivity. Identical solutions were used, but also bubbled with 100% oxygen.
For TER measurements, duodenum segments were stripped of muscularis propria and mounted in Ussing chambers, and equilibrated in oxygenated HBSS for 15 min at 37° C. Vehicle control solution (DMSO) or the same solution containing 100 μM NSC 67736 were then added bilaterally. TER was recorded using current clamp pulses from 0 to 10 μA and Vrev was recorded by clamping current to 0. Electrode bridges were made 3% agarose KCl.

[3] = test system: colonoids derived from a patient with inflammatory bowel disease; assay: Organoid shrinking assay in colonoids after Na+ to NMDG+ buffer exchange; assay type: cell-based, human; conditions: FIG. 25
Description: For this study, organoids derived from human colon biopsies (colonoids) were first equilibrated in steady-state with Na^+ as the predominant extracellular cation. Extraluminal Na^+ was then replaced with N-methyl-D-glucamine (NMDG^+) by buffer exchange. The buffer exchange generates a large concentration gradient for Na^+ to diffuse out of the organoid lumen. […] See, for example, FIG. 24. As a result, the net Na^+ flux across tight junctions creates an osmotic gradient for water to exit the organoid through tight junctions, causing organoids to shrink. The size of organoids is measured by time-lapse microscopy, and the rate and extent of shrinkage can be determined as an assay of claudin permeability. Reduced rate and extent of shrinkage indicates reduced permeability.
Colonoids derived from a patient with inflammatory bowel disease were first equilibrated in steady-state with Na^+ containing media. Equilibrated colonoids were treated with NSC 73446 or a vehicle control and the extraluminal Na^+ was then replaced with N-methyl-D-glucamine (NMDG^+) by buffer exchange. As is apparent from the results set forth in FIG. 25, water transport across human epithelium was modulated by NSC 73446.

O=C(Nc1cccc(C(=O)Nc2cc(C3=NCCN3)cc(C3=NCCN3)c2)c1)Nc1cccc(C(=O)Nc2cc(C3=NCCN3)cc(C3=NCCN3)c2)c1 [NSC 53299]
dose response of TER [1]: effective at low micromolar concentrations

Cl.Cl.O=C(Nc1ccc(C(=O)Nc2ccc(C3=NCCCN3)cc2)cc1)Nc1ccc(C2=NCCCN2)cc1 [NSC 67736]
change in TER (barrier function) in mouse mucosa [2]: increases barrier function

CCCNC(=O)c1cc(NC(=O)Nc2ccc(C3=NCCCN3)cc2)cc(NC(=O)Nc2ccc(C3=NCCCN3)cc2)c1.Cl [NSC 73446]
water transport across human epithelium ([3]; inferred from colonoid size change): reduces water transport out of the lumen of the colonoid
colonoid size change (rate and extent of shrinkage) ([3]; time-lapse microscopy, relative to vehicle control): minimizes the rate and extent of colonoid size decrease
